The values below are quoted from earlier work in US11602507B2, “Extended release oral composition of memantine or its salt and its process for the preparation” (TRIKONA PHARMACEUTICALS PVT. LTD, priority 2019, dated 2023).

Consider `CC12CC3CC(C)(C1)CC(N)(C3)C2` [Memantine, 1-amino-3,5-dimethyladamantane], for which the solubility in water entry is “highly soluble in water”.
